# Laboratory results taken from ChEMBL document CHEMBL1201862, “PubChem BioAssay data set” (2004).
#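 Briefly, cells in 96-well plates were exposed to five compound concentrations for 48 h, and endpoints were estimated by linear interpolation. Abbreviation: GI50, concentration required for 50% inhibition of growth.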 Active and inactive are the calls of the source. Rule as the data show it: active = GI50 up to about 1.1 µM and inactive = higher.
# How the values were obtained:
# Assay in all cases: NCI anticancer screen, dose series, 48 h
# CCRF-CEM = tested on: CCRF-CEM
# HCC 2998 = tested on: HCC 2998
# HOP-62 = tested on: HOP-62
# K562 = tested on: K562
# NCI-H226 = tested on: NCI-H226
# NCI-H23 = tested on: NCI-H23
# NCI-H460 = tested on: NCI-H460
# RPMI-8226 = tested on: RPMI-8226
# RXF 393 = tested on: RXF 393
# SK-OV-3 = tested on: SK-OV-3
# SNB-75 = tested on: SNB-75
# UACC-62 = tested on: UACC-62
# UO-31 = tested on: UO-31
# LOX IMVI = tested on: LOX IMVI
# SN12C = tested on: SN12C
Compound,GI50 (CCRF-CEM),GI50 (HCC 2998),GI50 (HOP-62),GI50 (K562),GI50 (NCI-H226),GI50 (NCI-H23),GI50 (NCI-H460),GI50 (RPMI-8226),GI50 (RXF 393),GI50 (SK-OV-3),GI50 (SNB-75),GI50 (UACC-62),GI50 (UO-31),GI50 (LOX IMVI),GI50 (SN12C)
C[C@]12CC[C@H](O)CC1=CC[C@@H]1C2CC[C@]2(C)Nc3c(cnn3-c3ccccc3)CC12 (stereo partly drawn),3.01 µM (inactive),3.56 µM (inactive),2.81 µM (inactive),2.61 µM (inactive),8.57 µM (inactive),3.88 µM (inactive),2.72 µM (inactive),0.361 µM (active),0.441 µM (active),4.07 µM (inactive),1 µM (active),4.14 µM (inactive),5.51 µM (inactive),,
O=C(COC(=O)c1cccc2c(=O)c3ccccc3[nH]c12)Nc1ccc(C(=O)O)cc1,69.5 µM (inactive),> 100 µM (inactive),> 100 µM (inactive),70.6 µM (inactive),> 10 µM (inactive),> 100 µM (inactive),> 100 µM (inactive),,46.8 µM (inactive),> 100 µM (inactive),42.5 µM (inactive),71 µM (inactive),71.3 µM (inactive),> 10 µM (inactive),> 100 µM (inactive)
COC(=O)N/N=C(\Cc1ccccc1)CN(C)C,> 100 µM (inactive),> 100 µM (inactive),> 100 µM (inactive),> 100 µM (inactive),,> 100 µM (inactive),> 100 µM (inactive),> 100 µM (inactive),> 100 µM (inactive),> 100 µM (inactive),> 100 µM (inactive),> 100 µM (inactive),,> 100 µM (inactive),
CCCCCC/C=C/CCCCCCCc1cccc(O)c1C(=O)O,39.5 µM (inactive),,33.6 µM (inactive),37.2 µM (inactive),,38.5 µM (inactive),9.75 µM (inactive),54.2 µM (inactive),,36.3 µM (inactive),> 100 µM (inactive),36.4 µM (inactive),86.9 µM (inactive),70.6 µM (inactive),
NCc1cc(O)c(O)c(O)c1,38.5 µM (inactive),,> 100 µM (inactive),43.1 µM (inactive),> 100 µM (inactive),,> 100 µM (inactive),33.7 µM (inactive),> 100 µM (inactive),> 100 µM (inactive),> 100 µM (inactive),59.3 µM (inactive),> 100 µM (inactive),34.8 µM (inactive),> 100 µM (inactive)
CC(C)(C)CC(C)(C)c1cc2c(O)c(c1)Cc1cc(C(C)(C)CC(C)(C)C)cc(c1O)Cc1cc(C(C)(C)CC(C)(C)C)cc(c1O)Cc1cc(C(C)(C)CC(C)(C)C)cc(c1O)Cc1cc(C(C)(C)CC(C)(C)C)cc(c1O)Cc1cc(C(C)(C)CC(C)(C)C)cc(c1O)C2,> 100 µM (inactive),> 100 µM (inactive),> 100 µM (inactive),> 100 µM (inactive),,> 100 µM (inactive),> 100 µM (inactive),> 100 µM (inactive),> 100 µM (inactive),,> 100 µM (inactive),> 100 µM (inactive),> 100 µM (inactive),,> 100 µM (inactive)
COc1ccc(C2=NN(C(C)=O)c3nc4ccccc4nc3O2)cc1,> 100 µM (inactive),> 100 µM (inactive),23.1 µM (inactive),> 100 µM (inactive),,55.2 µM (inactive),32.1 µM (inactive),> 100 µM (inactive),,,6.28 µM (inactive),61.4 µM (inactive),46.9 µM (inactive),,> 100 µM (inactive)
CCOC(=O)c1ccc(N2C(=O)/C(=C\OC)c3ccccc3C2=O)cc1,,46.2 µM (inactive),,34.2 µM (inactive),54 µM (inactive),37.2 µM (inactive),,27.8 µM (inactive),11.2 µM (inactive),5.22 µM (inactive),25.5 µM (inactive),23.2 µM (inactive),15.5 µM (inactive),,24.5 µM (inactive)
Cc1c(C(=O)C/C(=N/NC(=O)c2ccccc2)C(=O)Nc2ccc(Cl)cc2)[n+]([O-])c2ccccc2[n+]1[O-],32.4 µM (inactive),,90.8 µM (inactive),69 µM (inactive),> 100 µM (inactive),38.7 µM (inactive),49.1 µM (inactive),80.4 µM (inactive),85.1 µM (inactive),> 100 µM (inactive),> 100 µM (inactive),,,89.1 µM (inactive),> 100 µM (inactive)
N#CC(NNC(=O)c1ccccc1O)c1ccccc1 (stereo not drawn),0.855 µM (active),,5.89 µM (inactive),0.404 µM (active),5.87 µM (inactive),1.72 µM (inactive),0.646 µM (active),6.32 µM (inactive),1.03 µM (active),3.62 µM (inactive),0.38 µM (active),0.398 µM (active),0.562 µM (active),2.9 µM (inactive),9.08 µM (inactive)
On1c(-c2ccccc2)c(-c2c(-c3ccccc3)n(O)c3ccccc23)c2ccccc21,34.3 µM (inactive),,,36.6 µM (inactive),17.7 µM (inactive),27.3 µM (inactive),23.4 µM (inactive),,20.9 µM (inactive),29.8 µM (inactive),27.5 µM (inactive),55.3 µM (inactive),15.5 µM (inactive),26.2 µM (inactive),46.3 µM (inactive)
O=C(O)C12C3CCCC1C2CC3 (stereo not drawn),> 100 µM (inactive),,> 100 µM (inactive),> 100 µM (inactive),> 100 µM (inactive),> 100 µM (inactive),> 100 µM (inactive),> 100 µM (inactive),> 100 µM (inactive),> 100 µM (inactive),> 100 µM (inactive),> 100 µM (inactive),> 100 µM (inactive),> 100 µM (inactive),> 100 µM (inactive)
O=P(Oc1ccc2ccccc2c1)(N1CC1)N1CC1,44.9 µM (inactive),88.1 µM (inactive),,37.2 µM (inactive),16.2 µM (inactive),4.43 µM (inactive),8.99 µM (inactive),> 100 µM (inactive),14.3 µM (inactive),46.3 µM (inactive),,2.88 µM (inactive),10.7 µM (inactive),28.8 µM (inactive),23.5 µM (inactive)
CCOC(=O)NC(=O)c1cn(CCN2CCN(C(=O)CCCCCCCCCCC(=O)N3CCN(CCn4cc(C(=O)NC(=O)OCC)c(=O)[nH]c4=O)CC3)CC2)c(=O)[nH]c1=O,> 100 µM (inactive),> 100 µM (inactive),> 100 µM (inactive),> 100 µM (inactive),> 100 µM (inactive),> 100 µM (inactive),,> 100 µM (inactive),,> 100 µM (inactive),> 100 µM (inactive),,> 100 µM (inactive),29.3 µM (inactive),> 100 µM (inactive)
O=C(Nc1ccccc1)N1C(c2ccccc2)=N[C@@H](c2ccccc2)[C@@H]1c1ccccc1,22.6 µM (inactive),18.5 µM (inactive),20.6 µM (inactive),17.7 µM (inactive),23.3 µM (inactive),23.7 µM (inactive),31.4 µM (inactive),22.5 µM (inactive),15.2 µM (inactive),,22.1 µM (inactive),19.9 µM (inactive),16.1 µM (inactive),14.6 µM (inactive),21.9 µM (inactive)
